12 molecules from ChEMBL document CHEMBL1201862, “PubChem BioAssay data set” (2004) can be followed below.

Some test systems named below: CAKI-1; COLO 205; HCC 2998; HCT-15; HL-60; KM12; M14; MOLT-4; NCI-H522; SK-MEL-28; SN12C; SNB-19; SNB-75; SR; SW-620; UACC-62; SF-539.
Holding throughout (assay): DTP human tumour cell line panel, 48 h

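Method: 48-hour compound exposure of cells in 96-well plates, five concentrations, linear interpolation of endpoints. GI50 marks 50% less growth.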 Calls of active or inactive are those of the source. No stated cut-off is given here; in the data, active = GI50 up to about 1.1 µM and inactive = higher.

As a reminder, the GI50 is the concentration giving 50% growth inhibition. Take `CCOC(=O)C1(C#N)C(c2ccccc2)CC(O)(c2ccc(Cl)cc2)C(C(=O)c2ccc(Cl)cc2)C1c1ccccc1` (configuration not stated): the GI50 is > 100 µM (inactive) with CAKI-1; > 100 µM (inactive) in the experiment with COLO 205; > 100 µM (inactive) in the experiment with HCC 2998; above 100 µM with HCT-15; > 100 µM (inactive) in the experiment with HL-60; 34 µM (inactive) in the experiment on KM12. Moreover, the GI50 was > 100 µM (inactive) in the experiment on M14; 80.4 µM (inactive) with MOLT-4; 35 µM (inactive) in the experiment with NCI-H522; > 100 µM (inactive) in the experiment on SK-MEL-28; > 100 µM (inactive) in the experiment with SN12C; 34 µM (inactive) with SNB-19. Moreover, the GI50 with SNB-75 is 21.1 µM (inactive); with SR, > 100 µM (inactive); with SW-620, > 100 µM (inactive); in the experiment with UACC-62, > 100 µM (inactive).
In the case of `CCN1c2ccccc2-c2c3c1cc(C)cc3c1ccccc1[n+]2CC`, the GI50 was 2.26 µM (inactive) with CAKI-1; 0.811 µM (active) with HCC 2998; 6.22 µM with HCT-15; 1.16 µM (inactive) with HL-60; 0.339 µM (active) in the experiment with KM12; 1.69 µM (inactive) in the experiment on M14. The GI50 in the experiment on MOLT-4 is 1.04 µM (active); in the experiment with NCI-H522, 1.26 µM (inactive); in the experiment with SF-539 it was 1.19 µM (inactive); with SK-MEL-28 it was 1.19 µM (inactive); with SN12C, 0.659 µM (active); in the experiment with SNB-19, 0.528 µM (active). Besides, the GI50 was 0.798 µM (active) with SNB-75, 1.55 µM (inactive) with SR, 1.11 µM (active) with SW-620 and 0.743 µM (active) with UACC-62.
Turning to `O=C(O)c1nc(-c2ccc(Cl)c(Cl)c2)nc2ccc(Cl)cc12`, the GI50 in the experiment on CAKI-1 is 73.1 µM (inactive); in the experiment on COLO 205 it was > 100 µM (inactive); in the experiment with HCC 2998 it was > 100 µM (inactive); in the experiment on HCT-15 it was above 100 µM; with HL-60 it was 16.6 µM (inactive); with KM12 it was > 100 µM (inactive). Also, the GI50 is 40.8 µM (inactive) in the experiment with MOLT-4; > 100 µM (inactive) in the experiment with SF-539; > 100 µM (inactive) with SK-MEL-28; > 100 µM (inactive) with SN12C; 51.9 µM (inactive) in the experiment with SNB-19; 13.6 µM (inactive) in the experiment on SNB-75. Also, the GI50 is 64.4 µM (inactive) in the experiment with SR, > 100 µM (inactive) with SW-620 and > 100 µM (inactive) in the experiment on UACC-62.
Regarding `CC(CN1CCN(CC(C)Nc2ccnc3cc(Cl)ccc23)CC1)Nc1ccnc2cc(Cl)ccc12` (configuration not stated), the GI50 was 35.4 µM (inactive) in the experiment on CAKI-1; 14.4 µM (inactive) in the experiment with COLO 205; 16.6 µM (inactive) in the experiment on HCC 2998; 15.7 µM in the experiment with HCT-15; 8.93 µM (inactive) in the experiment with HL-60; 13.4 µM (inactive) with KM12. For the same molecule, the GI50 with M14 is 14.5 µM (inactive); in the experiment on MOLT-4, 9.38 µM (inactive); in the experiment with NCI-H522, 20.7 µM (inactive); in the experiment with SF-539, 16 µM (inactive); in the experiment with SK-MEL-28, 1.6 µM (inactive); in the experiment with SN12C it was 22.4 µM (inactive). The GI50 in the experiment on SNB-19 is 29 µM (inactive); in the experiment on SNB-75, 16.9 µM (inactive); in the experiment with SR, 1.83 µM (inactive); with UACC-62, 17.9 µM (inactive).
In the case of `CC(C)=CC(=O)N1CCN(C(=O)C=C(C)C)CC1`, the GI50 was > 100 µM (inactive) in the experiment on CAKI-1; > 100 µM (inactive) in the experiment with HCC 2998; above 100 µM in the experiment on HCT-15; > 100 µM (inactive) in the experiment on HL-60; > 100 µM (inactive) with KM12; > 100 µM (inactive) in the experiment on M14. Also, the GI50 in the experiment on MOLT-4, with NCI-H522, in the experiment with SF-539, in the experiment on SK-MEL-28, in the experiment with SN12C and in the experiment with SNB-19 was > 100 µM (inactive) each time. The GI50 in the experiment on SNB-75, in the experiment on SR, in the experiment with SW-620 and in the experiment on UACC-62 was > 100 µM (inactive) throughout.
With `C[n+]1c2ccccc2c(NCC(=O)O)c2ccccc21`, the GI50 was > 100 µM (inactive) in the experiment with CAKI-1; > 100 µM (inactive) in the experiment on COLO 205; > 100 µM (inactive) in the experiment with HCC 2998; above 100 µM with HCT-15; > 100 µM (inactive) in the experiment with HL-60; > 100 µM (inactive) in the experiment on KM12. Moreover, the GI50 in the experiment on M14, in the experiment on MOLT-4, with NCI-H522, in the experiment with SF-539, with SN12C and in the experiment with SNB-19 was > 100 µM (inactive) each time. Also, the GI50 in the experiment on SNB-75, with SR, with SW-620 and in the experiment on UACC-62 was > 100 µM (inactive) each time.
Take `Clc1cc2ns[s+]c2cc1Cl`: the GI50 in the experiment on CAKI-1 was 18.9 µM (inactive); in the experiment on COLO 205, > 88.3 µM (inactive); with HCC 2998, 59.7 µM (inactive); in the experiment on HCT-15, 4.34 µM; with HL-60, 19.3 µM (inactive); with KM12, 41 µM (inactive). For the same molecule, the GI50 with M14 is 9.73 µM (inactive); with MOLT-4, 29.9 µM (inactive); in the experiment with NCI-H522, 27.6 µM (inactive); in the experiment with SF-539, 36.6 µM (inactive); in the experiment with SK-MEL-28 it was > 81.8 µM (inactive); in the experiment on SN12C, 58.9 µM (inactive). Besides, the GI50 with SNB-19 is > 74.8 µM (inactive); with SNB-75 it was 21 µM (inactive); with SR it was 23.2 µM (inactive); in the experiment with SW-620 it was 32.8 µM (inactive); in the experiment with UACC-62 it was 5.33 µM (inactive).
Regarding `N#CC(C#N)=Cc1ccc(Oc2ccccc2)cc1`, the GI50 in the experiment with CAKI-1 is 43.8 µM (inactive); with COLO 205 it was 45.5 µM (inactive); in the experiment on HCC 2998, 97.5 µM (inactive); with HCT-15 it was 70.5 µM; in the experiment with HL-60, 23 µM (inactive); in the experiment on KM12 it was 39.3 µM (inactive). Further, the GI50 is 22.2 µM (inactive) in the experiment with M14; 28.6 µM (inactive) in the experiment on MOLT-4; 23.7 µM (inactive) in the experiment on NCI-H522; 19.9 µM (inactive) in the experiment with SF-539; 15.8 µM (inactive) in the experiment with SK-MEL-28; 14.1 µM (inactive) in the experiment on SN12C. Besides, the GI50 in the experiment with SNB-19 is 37.3 µM (inactive); in the experiment on SNB-75, 25.1 µM (inactive); in the experiment with SR, 41.3 µM (inactive); in the experiment with SW-620, 32.4 µM (inactive); with UACC-62, 16.8 µM (inactive).
With `O=[N+]([O-])c1ccc(C(Cl)C(Cl)c2ccc(C(Cl)C(Cl)c3ccc([N+](=O)[O-])cc3[N+](=O)[O-])cc2)c([N+](=O)[O-])c1` (configuration not stated), the GI50 with CAKI-1 was 1.67 µM (inactive); in the experiment on COLO 205, 1 µM (active); in the experiment on HCC 2998, 1.96 µM (inactive); with HCT-15, 1.19 µM; in the experiment on HL-60, 1.93 µM (inactive); in the experiment with KM12, 0.264 µM (active). For the same molecule, the GI50 in the experiment with M14 is 0.879 µM (active); with MOLT-4, 1.61 µM (inactive); with NCI-H522, 1.14 µM (inactive); in the experiment with SF-539, 1.67 µM (inactive); with SK-MEL-28, 2.3 µM (inactive); with SN12C, 1.95 µM (inactive). For the same molecule, the GI50 with SNB-19 was 0.671 µM (active); in the experiment on SNB-75, 8.02 µM (inactive); with SR, 2.23 µM (inactive); in the experiment on SW-620, 0.75 µM (active); in the experiment on UACC-62, 1.16 µM (inactive).
Regarding `COC(=O)[C@]1(C)CCC[C@@]2(C)C1CCC1=CC3(C(C)C)CCC12OO3` (some centres not stated), the GI50 in the experiment on CAKI-1 was 80.5 µM (inactive); in the experiment on COLO 205, > 100 µM (inactive); in the experiment on HCC 2998 it was 88.5 µM (inactive); in the experiment with HCT-15, 40 µM; in the experiment with HL-60, 15.9 µM (inactive); with KM12 it was > 100 µM (inactive). The GI50 with M14 was 74 µM (inactive); with MOLT-4, 20 µM (inactive); with NCI-H522 it was 40.5 µM (inactive); with SF-539, > 100 µM (inactive); in the experiment with SN12C, 43.2 µM (inactive); with SNB-19, > 100 µM (inactive). Moreover, the GI50 in the experiment on SR is 27.9 µM (inactive); in the experiment on SW-620, > 100 µM (inactive); in the experiment with UACC-62 it was 57 µM (inactive).
For `CC(C)[C@H](CCl)NC(=O)c1cccc(C(=O)N[C@H](CCl)C(C)C)n1` (stereo in doubt), the GI50 in the experiment on CAKI-1 was > 100 µM (inactive); with COLO 205, > 100 µM (inactive); in the experiment on HCC 2998 it was > 100 µM (inactive); in the experiment on HCT-15 it was above 100 µM; in the experiment with HL-60 it was > 100 µM (inactive); in the experiment with KM12, > 100 µM (inactive). The GI50 in the experiment with M14, in the experiment on MOLT-4, in the experiment on NCI-H522, in the experiment on SF-539, with SK-MEL-28 and with SN12C was > 100 µM (inactive) in each case. Moreover, the GI50 in the experiment with SNB-19, with SNB-75, in the experiment on SR and in the experiment with SW-620 was > 100 µM (inactive) each time.
Take `Oc1cc(-c2ccccn2)nc2cc(F)ccc12`: the GI50 in the experiment on COLO 205 is 74.6 µM (inactive); with HCC 2998, > 100 µM (inactive); in the experiment on HL-60 it was > 100 µM (inactive); in the experiment on KM12, 36.1 µM (inactive); in the experiment with M14, 81.1 µM (inactive); in the experiment with MOLT-4, > 100 µM (inactive). Also, the GI50 in the experiment on NCI-H522 is 25.8 µM (inactive); in the experiment with SF-539 it was 58.6 µM (inactive); in the experiment with SK-MEL-28 it was > 100 µM (inactive); in the experiment with SN12C, > 100 µM (inactive); in the experiment with SNB-19 it was > 100 µM (inactive); in the experiment on SNB-75 it was 26.5 µM (inactive). The GI50 is 18.9 µM (inactive) in the experiment on SR, 36.6 µM (inactive) in the experiment with SW-620 and 55.8 µM (inactive) with UACC-62.
